Consider seven compounds from patent US10494346B2, “Substituted pyrimidine-4-carboxylic acids having anticancer activity” (KOREA INSTITUTE OF SCIENCE AND TECHNOLOGY, priority 2016, dated 2019).

A word on the inhibition: it is the drop in the measured response relative to a control, in per cent. Usually GI50 stands for the concentration giving 50% growth inhibition. A high value points to less potent growth inhibition. Usually IC50 stands for the concentration that gives 50% inhibition. Low readings indicate inhibition by little substance, high ones a need for much substance.

Assay [1] deals with KDM5A-overexpressed breast cancer cells, MCF7. The assay can be described thus: Growth inhibitory activity on KDM5A-overexpressed cell lines (MCF7), single concentration. Format: cell-based. Conditions: Homo sapiens; MCF7, single concentration 10 μM; read-out: Growth inhibitory activity at 10 μM (inhibition proportion %). Here is the method:
The compound of the present invention was treated at a single concentration with KDM5A-overexpressed breast cancer cells, MCF7, and growth inhibitory activity was measured as an inhibition proportion (%).

The subject of assay [2] is A549 lung cancer cell line. The assay can be described thus: Inhibitory activity on cancer cell proliferation, A549. Format: cell-based. To be noted: Homo sapiens. Here is the method: (§1) The following test was conducted to identify whether the compound of the present invention has inhibitory activity on cancer cell proliferation.
(§2) The cancer cells herein used were lung cancer cell lines (NCI-H1299, A549) and breast cancer cell lines (MDA-MB-231).
(§3) Specifically, the NCI-H1299 cells were large cell lung carcinoma cell lines derived from human lung cancer tissues, and the MDA-MB231 cells were cell lines derived from human breast cancer tissues and obtained from the Korean cell line bank (KNCC, Seoul university), which were used for tests after passage culture. The NCI-H1299 and MDA-MB231 cell lines were cultured in a RPMI1640 medium supplemented with 10% FBS (fetal bovine serum), and were washed with buffered saline (PBS, pH 7.4), when the cells were proliferated on a plate at an affluence of 70 to 80%, and isolated into single cells using a 0.05% trypsin-EDTA (welgene) solution, and then passage-cultured at 1×10e6 cells/mL which were used for the test. […] After 72 hours, absorbance was measured using a CellTiter-Glo® Luminescent Cell Viability Assay (Promega) and an Envision 2103 multilabel reader (PerkinElmer). At this time, cells treated only with dimethylsulfoxide (DMSO) were used as the control group and relative viability (%) was calculated, based on 100% of the control group. […]

The test system of assay [3] is MDA-MB-231 breast cancer cell line. The assay can be described thus: Inhibitory activity on cancer cell proliferation, MDA-MB-231 (CellTiter-Glo, 72 hours). Format: cell-based. Conditions: Homo sapiens; MDA-MB-231, 72 hours. As to the method: as §1, §2
Specifically, the NCI-H1299 cells were large cell lung carcinoma cell lines derived from human lung cancer tissues, and the MDA-MB231 cells were cell lines derived from human breast cancer tissues and obtained from the Korean cell line bank (KNCC, Seoul university), which were used for tests after passage culture. The NCI-H1299 and MDA-MB231 cell lines were cultured in a RPMI1640 medium supplemented with 10% FBS (fetal bovine serum), and were washed with buffered saline (PBS, pH 7.4), when the cells were proliferated on a plate at an affluence of 70 to 80%, and isolated into single cells using a 0.05% trypsin-EDTA (welgene) solution, and then passage-cultured at 1×10e6 cells/mL which were used for the test. 100 μL of NCI-H1299 and 100 μL of MDA-MB231 were seeded on a 96-well plate at 2×10e4 cells/mL, and 5×10e4 cells/mL, respectively, stabilized in the presence of CO2 for 12 hours or longer, and then treated at different concentrations with the subject compound. After 72 hours, absorbance was measured using a CellTiter-Glo® Luminescent Cell Viability Assay (Promega) and an Envision 2103 multilabel reader (PerkinElmer). At this time, cells treated only with dimethylsulfoxide (DMSO) were used as the control group and relative viability (%) was calculated, based on 100% of the control group. GI50 was obtained using Graph PRISM 6 software.
(Cellular ATP, detected with luciferase, serves as a proxy for viable cell number.)

Assay [4] relates to NCI-H1299 cells. The assay can be described thus: Inhibitory activity on cancer cell proliferation, NCI-H1299 (CellTiter-Glo, 72 hours). The assay is classed as cell-based. Conditions: Homo sapiens; NCI-H1299, 72 hours. As to the method:
as §1, §2, §3

Assay [5] concerns the target KDM5A (lysine demethylase 5A) (Homo sapiens, UniProt P29375). The assay can be described thus: Inhibitory activity against histone demethylase (in vitro IC50). Format: biochemical. As to the method: Inhibitory activity against histone demethylase of the compound of the present invention was evaluated.

Structures are written as SMILES. Where only a bound is given, the exact number is not on record here.

Chain of KDM5A (lysine demethylase 5A) (P29375 whole entry, species assumed): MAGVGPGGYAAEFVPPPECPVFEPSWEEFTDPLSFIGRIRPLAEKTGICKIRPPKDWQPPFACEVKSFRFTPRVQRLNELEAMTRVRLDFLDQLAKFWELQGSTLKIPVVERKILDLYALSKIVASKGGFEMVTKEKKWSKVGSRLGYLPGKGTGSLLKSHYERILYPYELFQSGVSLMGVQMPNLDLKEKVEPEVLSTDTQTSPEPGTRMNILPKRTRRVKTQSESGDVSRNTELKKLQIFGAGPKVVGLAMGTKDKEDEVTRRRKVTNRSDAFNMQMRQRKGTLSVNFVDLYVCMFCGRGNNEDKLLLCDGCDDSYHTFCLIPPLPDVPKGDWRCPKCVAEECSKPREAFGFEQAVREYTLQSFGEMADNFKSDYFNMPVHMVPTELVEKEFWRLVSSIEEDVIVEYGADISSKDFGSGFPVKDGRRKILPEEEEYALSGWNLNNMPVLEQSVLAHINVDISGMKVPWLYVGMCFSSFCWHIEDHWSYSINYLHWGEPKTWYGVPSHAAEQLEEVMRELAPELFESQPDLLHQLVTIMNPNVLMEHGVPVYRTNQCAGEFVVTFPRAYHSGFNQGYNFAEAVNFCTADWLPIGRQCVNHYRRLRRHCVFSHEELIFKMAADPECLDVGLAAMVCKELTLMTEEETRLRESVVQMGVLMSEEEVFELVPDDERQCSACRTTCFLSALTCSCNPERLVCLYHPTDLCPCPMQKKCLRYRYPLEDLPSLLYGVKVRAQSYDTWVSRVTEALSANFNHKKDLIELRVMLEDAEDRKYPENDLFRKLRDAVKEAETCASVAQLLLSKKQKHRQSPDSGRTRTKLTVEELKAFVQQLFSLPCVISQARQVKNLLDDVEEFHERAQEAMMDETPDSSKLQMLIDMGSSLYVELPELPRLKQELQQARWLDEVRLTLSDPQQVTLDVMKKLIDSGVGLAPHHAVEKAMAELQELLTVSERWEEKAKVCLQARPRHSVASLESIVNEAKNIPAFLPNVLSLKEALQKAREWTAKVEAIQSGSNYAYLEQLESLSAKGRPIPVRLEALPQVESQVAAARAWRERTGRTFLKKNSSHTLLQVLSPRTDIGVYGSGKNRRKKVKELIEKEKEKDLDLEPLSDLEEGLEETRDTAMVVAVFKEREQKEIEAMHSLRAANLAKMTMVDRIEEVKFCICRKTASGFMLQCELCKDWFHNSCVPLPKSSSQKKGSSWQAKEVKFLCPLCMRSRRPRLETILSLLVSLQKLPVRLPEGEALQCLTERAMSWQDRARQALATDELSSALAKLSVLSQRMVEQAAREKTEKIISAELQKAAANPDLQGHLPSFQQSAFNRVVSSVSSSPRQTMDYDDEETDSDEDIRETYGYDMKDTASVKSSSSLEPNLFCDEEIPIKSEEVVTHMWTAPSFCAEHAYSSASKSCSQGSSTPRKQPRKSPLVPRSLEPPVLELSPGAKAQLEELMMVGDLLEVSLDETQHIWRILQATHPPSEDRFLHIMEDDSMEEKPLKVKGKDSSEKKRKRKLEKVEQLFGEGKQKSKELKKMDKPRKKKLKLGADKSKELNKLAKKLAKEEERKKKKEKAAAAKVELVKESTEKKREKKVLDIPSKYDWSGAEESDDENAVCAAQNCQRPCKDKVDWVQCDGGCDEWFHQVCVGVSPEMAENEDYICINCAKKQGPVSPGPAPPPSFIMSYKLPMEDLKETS

As for `O=C(O)c1ncncc1NCc1ccc(-c2ccccc2)cc1` [Example 1, 5-(([1,1′-biphenyl]-4-ylmethyl)amino)pyrimidine-4-carboxylic Acid], the inhibition at 10 µM in assay [1] fell in the range of 40 to 80%.
On to `O=C(O)c1ncncc1NCc1ccc(Cl)c(Cl)c1` [Example 3, 5-((3,4-dichlorobenzyl)amino)pyrimidine-4-carboxylic Acid], for which the GI50 in assay [2] and in assay [3] was 10 to 100 µM each time.
In assay [3], `O=C(O)c1ncncc1NCc1ccc(F)cc1` [Example 6, 5-((4-fluorobenzyl)amino)pyrimidine-4-carboxylic Acid] registered a GI50 of 10 to 100 µM.
Turning to `O=C(O)c1ncncc1NCc1cc(C(F)(F)F)cc(C(F)(F)F)c1` [Example 7, 5-((3,5-bis(trifluoromethyl)benzyl)amino)pyrimidine-4-carboxylic Acid], the GI50 in assay [3] was 10 to 100 µM.
On the same count and under the same terms, next, `Cc1ccc(CNc2cncnc2C(=O)O)cc1` [Example 9, 5-((4-methylbenzyl)amino)pyrimidine-4-carboxylic Acid]: 10 to 100 µM.
On to `O=C(O)c1ncncc1NCc1cccc(F)c1` [Example 10, 5-((3-fluorobenzyl)amino)pyrimidine-4-carboxylic Acid], for which the GI50 in assay [4] was less than 10 µM.
In the case of `CCCn1nc(Nc2cncnc2C(=O)O)c2ccccc21` [Example 12, 5-((1-propyl-1H-indazol-3-yl)amino)pyrimidine-4-carboxylic Acid], the IC50 in assay [5] was less than 3 µM. For the same compound, the GI50 in assay [2] and in assay [3] was 10 to 100 µM in each case.
